Results taken from BindingDB's records for doi:10.1016/j.bmcl.2005.02.011 (Florida Institute of Technology, 2005).

experiment: Effective concentration for DP2 mediated chemotaxis in eosinophils

Question: With `CCCCC[C@@](C)(O)/C=C/[C@H]1C(=O)C[C@H](O)[C@@H]1C/C=C/CCCC(=O)O` [(Z)-7-[(1R,4S,5R)-5-Hydroxy-2-((R)-3-hydroxy-3-methyl-oct-1-enyl)-3-oxo-cyclopentyl]-hept-5-enoic acid] as the molecule, how does the EC50 read?
Answer: Its EC50 is 1.7 nM.

Question: With `CCCCC[C@](C)(O)/C=C/[C@H]1C(=O)C[C@H](O)[C@@H]1C/C=C/CCCC(=O)O` as the molecule, how does the EC50 read?
Answer: The EC50 was 128 nM.

Question: With `CCCCC[C@H](O)/C=C/[C@H]1C(=O)C[C@H](O)[C@@H]1C/C=C/CCCC(=O)O` [(Z)-7-[(1R,2R,5S)-5-Hydroxy-2-((E)-(S)-3-hydroxy-oct-1-enyl)-3-oxo-cyclopentyl]-hept-5-enoic acid] as the molecule, how does the EC50 read?
Answer: Its EC50 is 10 nM.
